The values that follow come from patent US5302611A, “Oxindole alkaloids having properties stimulating the immunologic system & preparation containing the same” (Keplinger; Klaus, priority 1980, dated 1994).

Assay [1] has as its system ascites cells of Walker-250-carcinosarcoma. In words: Cytotoxicity test by the 3H-thymidine-incorporation test on ascites cells. In kind it is cell-based, rats. To be noted: Rattus norvegicus, read-out: mean value of the inhibition of 3H-thymidine incorporation. From the text: 5. Cytotoxicity test by the ^3 H-thymidine-incorporation test on ascites cells
Since in the granulocytic test some substances lyse the granulocytes at high concentrations we examined the cell-damaging effect at the model of the ^3 H-thymidine-incorporation test in ascites cells to be able to find a possible relation between the phagocytosis increase and cytotoxicity in potential active substances.
In this in-vitro-test system according to WEITZEL et al (H oppe-Seyler's Z. physiolog. Chem. 348, 433, 1967) the cytotoxicity of substances by inhibition of the DNA-synthesis of tumour cells can be numerically determined by the changed incorporation rates of ^3 H-thymidine in ascites cells of Walter-250-carcinos arcoma of rats.
The test was carried out as follows: 3 ml of cell suspension of Walker-250-carcinosarcoma-ascites were mixed with 10 ml of MEDIUM L-15 (Boehringer) in a 50 ml centrifugal glass and centrifugated for 10 minutes. The supernatant was decanted and the centrifugal glass was filled up with medium to 1 cm below the rim. From the stirred cell suspension 1 ml (corresponds to 2×10^6 cells/ml) per sample was given into a centrifugal glass and 500 μl of the test solution were added, the control test was carried out with 500 μl of medium. […] The filters were given in polyethylene flasks and the activities were measured in toluene-scintillator. […]

The next assay deals with macrophage-phagocytosis. To be noted: concentrations of 10^-4 % and 10^-5 %; cited from earlier work.
Assay [2] relates to neutrophil granulocytes (PMNL). Description: Granulocytic test modified after BRANDT (phagocytosis of yeast particles). In kind it is cell-based, human. To be noted: up to dilutions of 10^-6 %. From the text:
1. […] They represent about 60-70% of all leucocytes in the human blood. The phagocytosis effect of all these granulocytes can be measured in vitro according to a method developed by BRAND (Scand. J. Haematol. Suppl. 2, 1967) and modified by TYMPNER (Munich Med. Weekly 8, 251, 1978).
A granulocytic fraction is taken from the blood of healthy probands (PMNL--abbreviation of polymorphonuclearleucocytes)
This PMNL-fraction mainly consists of neutrophil granulocytes and few eosinophil and basophil granulocytes as well as of lymphocytes, monocytes and thrombocytes. After addition of a defined amount of yeast cells (Saccharomyces cerevisiae) and the substance to be tested incubation is carried out for 10 minutes at 37° C., the suspension is spread on an object carrier and incubated at room temperature for further 35 minutes. Then the spreads are coloured and microscopically evaluated. 100 PMNL-cells are selected per object carrier, and it is determined how many yeast particles of the individual cells have been phagocytised. The phagocytosis index indicates the average number of phagocytised yeast particles.
15 ml of heparinised venous blood of clinically healthy adults was diluted with 1.5% of dextran T 500 (Pharmacia) 2:1 and allowed to stand at room temperature for 30 minutes. The supernatant containing leucocytes was injected into a sterile plastic tube and centrifugated for 7 minutes at 500 r.p.m. The granulocytes in the deposit were washed twice with 5 ml of PPM I-buffer in each case. Then the granulocytes were suspended in about 5 ml of buffer and adjusted in the Neubauer's chamber to a concentration of 5×10^6 cells/ml.
Yeast suspended in 0.9% of NaCl was heated to 100° C., three times filtered through gaze and adjusted to 3-5×10^7 particles/ml.
The serum of 5 clinically healthy adults was mixed and frozen in portions of 5 ml. For the test dilution was carried out with 0.9% of NaCl 1:10.
The test was carried out as follows: 0.2 ml of substance dissolved in 0.9% of NaCl and 0.2 ml of 0.9% NaCl, as a control substance, were pipetted to 0.2 ml, each, of pool serum, granulocyte- and yeast suspension and first incubated for 10 minutes at 37° C. Then 0.5 ml of each preparation were applied to an object carrier and incubated in a humid chamber at room temperature for further 35 minutes. Granulocytes deposited, the supernatant was carefully washed with 0.9% of NaCl, and the object carrier was dried with a dryer.
100 granulocytes were counted out per object carrier, and it was determined how many yeast particles of the individual cells had been phagocytised. The phagocytosis index (PJ) indicates the average number of yeast particles per granulocyte. The increase (S) of the phagocytosis activity in the blank value was calculated according to: [formula]

The next assay has as its system diluted whole blood. In words: Chemiluminescence test (CL), whole blood method. To be noted: Homo sapiens, 1 h, read-out: Percental increase of the CL-response. The class given is cell-based. Here is the method:
(§1) 2. Chemiluminescence test (CL)
(§2) The low light yield of such CL-reactions of phagocytised cells is increased in the in-vitro-experiment by the addition of substances which are oxydated by activated oxygen and thus produce light of a certain wavelength, which can be physically measured. Suitable substrates are luminole (5-amino-2,3-dihydro-1,4-phthalazindione) and lucigenine (10,10'-dimethyl-9,9'-biacri-diniumdinitrate), which increase the CL-response by 10^3 times.
(§3) All tests were carried out in 6-channel-Biolumat LB 9505 of Berthold, connected to an Apple-computer with a CL-evaluation program of Berthold.
(§4) Lucigenine was chosen for light amplification which emits photons at a narrow wavelength distribution of about 510 nm and thus almost lies in the optimum of the photo-multiplier sensitivity.
(§5) The pH-value of the measuring solution should be between 7.1 and 7.4, which is obtained by the addition of veronal-buffered salt solution. The test substances were dissolved in phosphate-buffered salt solution, (PBS-buffer). Both buffer systems contain 0.1% of glucose, because the "respiratory-burst"-reaction is connected with an increase of the glucose-metabolism.
(§6) Opsonised zymosan was used for phagocyte-activation. The measurement of the CL of isolated granulocytes was carried out with native blood of isolated polymorphonuclear leucocytes (PMNL), which had been adjusted with PBS-Puffer to 10^6 […].
(§7) The test substances were first together with the isolated granulocytes or with the whole blood incubated at room temperature for 10 minutes and then in biclumate for 10 minutes at 37° C. After addition of the opsonised zymosan, measurement in the biolumat at 37° C. started. […] A curve which was typical for each substance was obtained. The integrated surfaces are directly proportional to the intensity of the CL-response.
(§8) For determining the stimulation of the "respiratory-burst" of granulocytes,which had taken place, the same formula as for the granulocytic test was used.
20 ml of native blood were mixed with 30 mg EDTA as anti-coagulant and diluted 1:100 with PBS-buffer.
460 μl of veronal-buffered salt solution
200 μl of diluted whole blood
(§9) 100 μl of lucigenine-solution
(§10) 200 μl of substance dissolved in PBS and PBS as control
(§11) After preincubation at room temperature for 10 minutes and subsequent incubation for 10 minutes at 37° C. in 6-channel-Biolumat, 40 μl of opsonised zymosan were admixed under through stirring and measurement was started. Measuring was stopped after 60 minutes.
(§12) The CL-response of the samples was stored by a computer over the measuring period, and after measurement illustrated in the form of a curve. By integration of the surfaces, the intensity of the CL-response of the respective sample was obtained in cpm.
(§13) The increase S of the CL-response by a test substance was calculated according to [formula]

In assay [3] the test system is isolated polymorphonuclear leucocytes (PMNL). In words: Chemiluminescence test (CL), PMNL method (isolated granulocytes). The class given is cell-based, human. To be noted: for Peak-Maximum: control 2.12; for tmax: control 50.0. The procedure: as §1, §2, §3, §4, §5, §6, §7, §8
20 ml of native blood were mixed with 30 mg EDTA. 15 ml of this blood were mixed with 7 ml of dextran in a syringe and allowed to stand at room temperature for 30 minutes. The leucocyte-containing supernatant was transfered into a sterile centrifugal tube and centrifugated at 1000 r.p.m. for 10 minutes. The deposit consisted of leucocytes and residual portions of erythrocytes, which can influence measurement by their colour quench. The residual erythrocytes were removed by hypotonic lyis. For this purpose, the deposit was suspended in 0.25% of NaCl-solution and agitated on the whirlmix for 20 seconds. Then 20 ml of 1.6% NaCl-solution were admixed and agitated again. After centrifugation at 2000 r.p.m. for 10 minutes, the supernatant was sucked off and the whole process was repeated twice. Subsequently, the deposit was suspended in 2 ml of PBS-buffer and diluted 1:10 with Turcks-solution. It was adjusted in the Neubauer's chamber with PBS-buffer to 10^6 -cells/ml.
630 μl of veronal-buffered salt solution
as §9, §10, §11, §12, §13

[4] abbreviates: isolated granulocytes, concentration 10^-4 %.
[5] abbreviates: isolated granulocytes, concentration 10^-5 %.
Setting [6] is: isolated granulocytes, concentration 10^-6 %.
Where [7] appears, read: isolated granulocytes, concentration 10^-7 %.
The mark [8] stands for this setting: isolated granulocytes, concentration 10^-8 %.

SMILES strings stand for the structures. Like-named read-outs stand apart in the source and are kept apart here.

Take `CN(Cc1cnc2nc(N)nc(N)c2n1)c1ccc(C(=O)N[C@@H](CCC(=O)O)C(=O)O)cc1` [Methotrexat®, N-[4-[[(2,4-Diamino-6-pteridinyl)methyl]methylamino]benzoyl]-L-glutamic acid]: the inhibition at 2000 µg/mL in assay [1] was found to be 43%.

In the case of `CC[C@]1(O)C[C@H]2CN(CCc3c([nH]c4ccccc34)[C@@](C(=O)OC)(c3cc4c(cc3OC)N(C=O)[C@H]3[C@@](O)(C(=O)OC)[C@H](OC(C)=O)[C@]5(CC)C=CCN6CC[C@]43[C@@H]65)C2)C1` [vincristine, reference compound], the “in-vitro-inhibition of the macrophage-phagocytosis” value in the assay on macrophage-phagocytosis is “in-vitro-inhibitionof the macrophage-phagocytosis has been found”. Further, the “effect in the granulocytic test” value in assay [2] is recorded as “no effects have been found”.

On to `COc1cccc2c1cc([N+](=O)[O-])c1c(C(=O)O)cc3c(c12)OCO3` [aristolochic acid], for which the activation at 0.001 % with diluted whole blood (concentration 10^-3 %) came out at 51.9%. Also, the activation at 0.0001 % was found to be 19.2% with diluted whole blood (concentration 10^-4 %); 85.1% in assay [3] (Homo sapiens, 1 h, PMNL, concentration 10^-4 %, read-out: Percental increase of the CL-response); 126% in assay [3] (Homo sapiens, PMNL, 1 h, isolated granulocytes, concentration 10^-4 %, read-out: Increase of CL-response). In addition, the activation at 1e-05 % with diluted whole blood (concentration 10^-5 %) was 21.8%; in assay [3] (Homo sapiens, 1 h, PMNL, concentration 10^-5 %, read-out: Percental increase of the CL-response), 93.5%; in assay [3] (Homo sapiens, PMNL, 1 h, isolated granulocytes, concentration 10^-5 %, read-out: Increase of CL-response) it was 160%. In addition, the activation at 1e-06 % in the assay on diluted whole blood (concentration 10^-6 %) was 14%; in assay [3] (Homo sapiens, 1 h, PMNL, concentration 10^-6 %, read-out: Percental increase of the CL-response), 68.3%; in assay [3] (Homo sapiens, PMNL, 1 h, isolated granulocytes, concentration 10^-6 %, read-out: Increase of CL-response), 69.8%. Besides, the activation at 1e-07 % in the assay on diluted whole blood (concentration 10^-7 %) was 5.5%; in assay [3] (Homo sapiens, 1 h, PMNL, concentration 10^-7 %, read-out: Percental increase of the CL-response) it was 61.9%; in assay [3] (Homo sapiens, PMNL, 1 h, isolated granulocytes, concentration 10^-7 %, read-out: Increase of CL-response), 52.8%. For the same compound, the activation at 1e-08 % is 58.7% in assay [3] (Homo sapiens, 1 h, PMNL, concentration 10^-8 %, read-out: Percental increase of the CL-response) and 93.4% in assay [3] (Homo sapiens, PMNL, 1 h, isolated granulocytes, concentration 10^-8 %, read-out: Increase of CL-response). Moreover, in assay [3] (Homo sapiens, 1 h, PMNL, concentration 10^-9 %, read-out: Percental increase of the CL-response), the activation at 1e-09 % is 31.3%. Further, the Peak-Maximum in assay [3] (setting [4]) was 4.80 cpm × 10^5; in assay [3] (setting [5]), 5.52 cpm × 10^5; in assay [3] (setting [6]), 3.40 cpm × 10^5; in assay [3] (setting [7]), 3.24 cpm × 10^5; in assay [3] (setting [8]), 4.10 cpm × 10^5. Further, the tmax is 30.0 min in assay [3] (setting [4]); 32.6 min in assay [3] (setting [5]); 34.6 min in assay [3] (setting [6]); 32.0 min in assay [3] (setting [7]); 29.3 min in assay [3] (setting [8]). Besides, the “concentration of the efficiency maximum in the CL-test” value in assay [3] (isolated granulocytes, lower by a power of ten than in the granulocytic test) is reported as 10^-5%.
